Experimental data reported in patent publication US20100267561A1, “HERBICIDAL PYRIDAZINONE DERIVATIVES” (priority 2007, published 2010).

How the values were obtained:
Format in all cases: in vivo
[1] = tested on: wheat (Triticum aestivum); assay: Test A pre-/postemergence plant response
How it was run: (§1)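 Both pre- and postemergence treatment given concurrently; postemergence seedlings measured 2–10 cm at the one- to two-leaf stage. Visual injury, 0–100 scale versus untreated, at ~10 days.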

[2] = tested on: large crabgrass (Digitaria sanguinalis); assay: Test A pre-/postemergence plant response
How it was run: as §1

[3] = tested on: pigweed (Amaranthus retroflexus); assay: Test A pre-/postemergence plant response
How it was run: as §1

[4] = tested on: morningglory (Ipomoea coccinea); assay: Test A pre-/postemergence plant response
How it was run: as §1

[5] = tested on: barnyardgrass (Echinochloa crus-galli); assay: Test A pre-/postemergence plant response
How it was run: as §1

[6] = tested on: giant foxtail (Setaria faberi); assay: Test A pre-/postemergence plant response
How it was run: as §1

[7] = tested on: velvetleaf (Abutilon theophrasti); assay: Test A pre-/postemergence plant response
How it was run: as §1

[8] = tested on: ducksalad (Heteranthera limosa); assay: Test B flooded paddy test plant response
How it was run: (§2)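 Paddy-water application to 2-leaf plants in pots held under 3 cm of flooding; response is a 0–100 visual control rating against controls after 13 to 15 days, and a dash marks a missing result.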

[9] = tested on: umbrella sedge (Cyperus difformis); assay: Test B flooded paddy test plant response
How it was run: as §2

[10] = tested on: barnyardgrass (Echinochloa crus-galli); assay: Test B flooded paddy test plant response
How it was run: as §2

[11] = tested on: canarygrass (Phalaris minor); assay: Test B postemergence plant response; details: Postemergence
How it was run: (§3)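 Compounds applied after emergence to 2–18 cm plants; response read visually 13–15 days later on 0 (none) to 100 (complete control); a dash marks no result.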

[12] = tested on: chickweed (Stellaria media); assay: Test B postemergence plant response; details: Postemergence
How it was run: as §3

[13] = tested on: winter barley (Hordeum vulgare); assay: Test B postemergence plant response; details: Postemergence
How it was run: as §3

[14] = tested on: windgrass (Apera spica-venti); assay: Test B postemergence plant response; details: Postemergence
How it was run: as §3

[15] = Postemergence, 125 g ai/ha, 0 to 100 scale, 0 no effect, 100 complete control
[16] = Postemergence, 500 g ai/ha, 0 to 100 scale, 0 no effect, 100 complete control
[17] = Preemergence, 125 g ai/ha, 0 to 100 scale (0 no effect, 100 complete control)
[18] = Preemergence, 500 g ai/ha, 0 to 100 scale (0 no effect, 100 complete control)
[19] = Flood (flooded paddy test), 62 g ai/ha, scale 0 to 100, 0 no effect, 100 complete control
[20] = Flood (flooded paddy test), 125 g ai/ha, scale 0 to 100, 0 no effect, 100 complete control
[21] = Flood (flooded paddy test), 250 g ai/ha, scale 0 to 100, 0 no effect, 100 complete control
[22] = Flood, 31 g ai/ha, scale 0 to 100
[23] = 31 g ai/ha, scale 0 to 100, 0 no effect, 100 complete control

For `Cc1cc(-c2ccc(Br)cc2)nn1-c1c(OC(=O)C2CC2)cnn(C)c1=O` [Compound 5], the “Plant response rating, Wheat” value [1, 15] was 60, the “Plant response rating, Wheat” value [1, 16] was 70 and the “Plant response rating, Wheat” value [1, 17] was 90. For the same compound, the “Plant response rating, Wheat” value [1, 18] was 100, the “Plant response rating, Crabgrass, Large” value [2, 15] was 100 and the “Plant response rating, Crabgrass, Large” value [2, 16] was 100. The “Plant response rating, Crabgrass, Large” value [2, 17] was 100, the “Plant response rating, Crabgrass, Large” value [2, 18] was 100 and the “Plant response rating, Pigweed” value [3, 15] was 0. The “Plant response rating, Pigweed” value [3, 16] was 0, the “Plant response rating, Pigweed” value [3, 17] was 0 and the “Plant response rating, Pigweed” value [3, 18] was 0. For the same compound, the “Plant response rating, Morningglory” value [4, 15] was 0, the “Plant response rating, Morningglory” value [4, 16] was 0 and the “Plant response rating, Morningglory” value [4, 17] was 0. For the same compound, the “Plant response rating, Morningglory” value [4, 18] was 0, the “Plant response rating, Barnyardgrass” value [5, 15] was 100 and the “Plant response rating, Barnyardgrass” value [5, 16] was 100. The “Plant response rating, Barnyardgrass” value [5, 17] was 90, the “Plant response rating, Barnyardgrass” value [5, 18] was 100 and the “Plant response rating, Foxtail, Giant” value [6, 15] was 100. For the same compound, the “Plant response rating, Foxtail, Giant” value [6, 16] was 100, the “Plant response rating, Foxtail, Giant” value [6, 17] was 100 and the “Plant response rating, Foxtail, Giant” value [6, 18] was 100. For the same compound, the “Plant response rating, Velvetleaf” value [7, 15] was 20, the “Plant response rating, Velvetleaf” value [7, 16] was 50 and the “Plant response rating, Velvetleaf” value [7, 17] was 0. The “Plant response rating, Velvetleaf” value [7, 18] was 20, the “Plant response rating, Ducksalad” value [8, 19] was 40 and the “Plant response rating, Ducksalad” value [8, 20] was 50. For the same compound, the “Plant response rating, Ducksalad” value [8, 21] was 65, the “Plant response rating, Ducksalad” value [8, 22] was 30 and the “Plant response rating, Sedge, Umbrella” value [9, 19] was 70. The “Plant response rating, Sedge, Umbrella” value [9, 20] was 80, the “Plant response rating, Sedge, Umbrella” value [9, 21] was 80 and the “Plant response rating, Sedge, Umbrella” value [9, 22] was 70. For the same compound, the “Plant response rating, Barnyardgrass” value [10, 19] was 50, the “Plant response rating, Barnyardgrass” value [10, 20] was 70 and the “Plant response rating, Barnyardgrass” value [10, 21] was 90. The “Plant response rating, Barnyardgrass” value [10, 22] was 20, the “Plant response rating, Canarygrass” value [11, 23] was 80 and the “Plant response rating, Canarygrass” value ([11]; 62 g ai/ha, scale 0 to 100) was 100. The “Plant response rating, Canarygrass” value ([11]; 125 g ai/ha, scale 0 to 100) was 100, the “Plant response rating, Canarygrass” value ([11]; 250 g ai/ha, scale 0 to 100) was 100 and the “Plant response rating, Chickweed” value [12, 23] was 0. The “Plant response rating, Chickweed” value ([12]; 62 g ai/ha, scale 0 to 100) was 0, the “Plant response rating, Chickweed” value ([12]; 125 g ai/ha, scale 0 to 100) was 0 and the “Plant response rating, Chickweed” value ([12]; 250 g ai/ha, scale 0 to 100) was 0. The “Plant response rating, Barley” value [13, 23] was 30, the “Plant response rating, Barley” value ([13]; 62 g ai/ha, scale 0 to 100) was 90 and the “Plant response rating, Barley” value ([13]; 125 g ai/ha, scale 0 to 100) was 95. For the same compound, the “Plant response rating, Barley” value ([13]; 250 g ai/ha, scale 0 to 100) was 95, the “Plant response rating, Windgrass” value [14, 23] was 95 and the “Plant response rating, Windgrass” value ([14]; 62 g ai/ha, scale 0 to 100) was 100. The “Plant response rating, Windgrass” value ([14]; 125 g ai/ha, scale 0 to 100) was 100 and the “Plant response rating, Windgrass” value ([14]; 250 g ai/ha, scale 0 to 100) was 100.

In the case of `CCc1cc(-c2ccc(C(F)(F)F)cc2)nn1-c1c(OC(=O)OC(C)C)cnn(C)c1=O` [Compound 12], the “Plant response rating, Wheat” value [1, 15] is reported as 70, the “Plant response rating, Wheat” value [1, 16] is reported as 90 and the “Plant response rating, Wheat” value [1, 17] is reported as 90. The “Plant response rating, Wheat” value [1, 18] was 100, the “Plant response rating, Crabgrass, Large” value [2, 15] was 90 and the “Plant response rating, Crabgrass, Large” value [2, 16] was 100. The “Plant response rating, Crabgrass, Large” value [2, 17] was 100, the “Plant response rating, Crabgrass, Large” value [2, 18] was 100 and the “Plant response rating, Pigweed” value [3, 15] was 0. The “Plant response rating, Pigweed” value [3, 16] was 0, the “Plant response rating, Pigweed” value [3, 17] was 0 and the “Plant response rating, Pigweed” value [3, 18] was 0. The “Plant response rating, Morningglory” value [4, 15] was 0, the “Plant response rating, Morningglory” value [4, 16] was 0 and the “Plant response rating, Morningglory” value [4, 17] was 0. The “Plant response rating, Morningglory” value [4, 18] was 0, the “Plant response rating, Barnyardgrass” value [5, 15] was 90 and the “Plant response rating, Barnyardgrass” value [5, 16] was 100. The “Plant response rating, Barnyardgrass” value [5, 17] was 100, the “Plant response rating, Barnyardgrass” value [5, 18] was 100 and the “Plant response rating, Foxtail, Giant” value [6, 15] was 80. For the same compound, the “Plant response rating, Foxtail, Giant” value [6, 16] was 100, the “Plant response rating, Foxtail, Giant” value [6, 17] was 100 and the “Plant response rating, Foxtail, Giant” value [6, 18] was 100. For the same compound, the “Plant response rating, Velvetleaf” value [7, 15] was 0, the “Plant response rating, Velvetleaf” value [7, 16] was 0 and the “Plant response rating, Velvetleaf” value [7, 17] was 0. The “Plant response rating, Velvetleaf” value [7, 18] was 0, the “Plant response rating, Ducksalad” value [8, 19] was 0 and the “Plant response rating, Ducksalad” value [8, 20] was 40. The “Plant response rating, Ducksalad” value [8, 21] was 50, the “Plant response rating, Ducksalad” value [8, 22] was 0 and the “Plant response rating, Sedge, Umbrella” value [9, 19] was 40. For the same compound, the “Plant response rating, Sedge, Umbrella” value [9, 20] was 60, the “Plant response rating, Sedge, Umbrella” value [9, 21] was 60 and the “Plant response rating, Sedge, Umbrella” value [9, 22] was 0. For the same compound, the “Plant response rating, Barnyardgrass” value [10, 19] was 30, the “Plant response rating, Barnyardgrass” value [10, 20] was 60 and the “Plant response rating, Barnyardgrass” value [10, 21] was 80. For the same compound, the “Plant response rating, Barnyardgrass” value [10, 22] was 0, the “Plant response rating, Canarygrass” value ([11]; 16 g ai/ha, scale 0 to 100) was 100 and the “Plant response rating, Canarygrass” value [11, 23] was 100. For the same compound, the “Plant response rating, Canarygrass” value ([11]; 62 g ai/ha, scale 0 to 100) was 100, the “Plant response rating, Canarygrass” value ([11]; 125 g ai/ha, scale 0 to 100) was 100 and the “Plant response rating, Chickweed” value ([12]; 16 g ai/ha, scale 0 to 100) was 0. For the same compound, the “Plant response rating, Chickweed” value [12, 23] was 0, the “Plant response rating, Chickweed” value ([12]; 62 g ai/ha, scale 0 to 100) was 0 and the “Plant response rating, Chickweed” value ([12]; 125 g ai/ha, scale 0 to 100) was 0. For the same compound, the “Plant response rating, Barley” value ([13]; 16 g ai/ha, scale 0 to 100, 0 no effect, 100 complete control) was 80, the “Plant response rating, Barley” value [13, 23] was 95 and the “Plant response rating, Barley” value ([13]; 62 g ai/ha, scale 0 to 100) was 100. For the same compound, the “Plant response rating, Barley” value ([13]; 125 g ai/ha, scale 0 to 100) was 100, the “Plant response rating, Windgrass” value ([14]; 16 g ai/ha, scale 0 to 100) was 100 and the “Plant response rating, Windgrass” value [14, 23] was 100. The “Plant response rating, Windgrass” value ([14]; 62 g ai/ha, scale 0 to 100) was 100 and the “Plant response rating, Windgrass” value ([14]; 125 g ai/ha, scale 0 to 100) was 100.
